Measurements published in publication PMC2758719 (Molecular Systems Biology, 2009).

Biological target: T1, PfkA (Escherichia coli, UniProt P0A796)
T1 sequence (P0A796 1-320): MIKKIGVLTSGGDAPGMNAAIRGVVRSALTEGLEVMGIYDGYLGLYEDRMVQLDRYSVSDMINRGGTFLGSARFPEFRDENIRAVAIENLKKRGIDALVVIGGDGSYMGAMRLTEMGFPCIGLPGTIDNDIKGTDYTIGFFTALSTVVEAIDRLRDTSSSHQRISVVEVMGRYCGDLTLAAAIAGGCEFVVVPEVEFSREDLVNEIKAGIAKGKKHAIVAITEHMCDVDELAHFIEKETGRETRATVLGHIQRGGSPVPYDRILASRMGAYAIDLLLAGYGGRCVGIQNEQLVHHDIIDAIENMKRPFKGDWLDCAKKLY
Experiment: CE-MS quantification of metabolites after incubation
Format: biochemical
Conditions: 5 mM S7P, 2 mM ATP, 2 uM enzyme, 50 mM MOPS potassium buffer, 37 °C, 1 h

O=P(O)(O)OC[C@@H](O)[C@H]1OC(O)(CO)[C@@H](O)[C@@H]1O (stereo partly shown) [S7P]
CE-MS quantification of metabolites after incubation: When S7P and ATP were incubated with PfkA, S7P and ATP were consumed
